We go through 27 molecules from patent publication US5318984A, “Imidazoles for the treatment of atherosclerosis” (priority 1992, dated 1994).

This assay concerns the target T1, Acyl-CoA: Cholesterol Acyltransferase (ACAT) (Rattus norvegicus, UniProt Q7TQM4).
T1 construct: Microsomes were obtained by differential centrifugation; from tissue; host or cells: liver microsomes of male Sprague Dawley rats
T1 sequence (Q7TQM4 1-524): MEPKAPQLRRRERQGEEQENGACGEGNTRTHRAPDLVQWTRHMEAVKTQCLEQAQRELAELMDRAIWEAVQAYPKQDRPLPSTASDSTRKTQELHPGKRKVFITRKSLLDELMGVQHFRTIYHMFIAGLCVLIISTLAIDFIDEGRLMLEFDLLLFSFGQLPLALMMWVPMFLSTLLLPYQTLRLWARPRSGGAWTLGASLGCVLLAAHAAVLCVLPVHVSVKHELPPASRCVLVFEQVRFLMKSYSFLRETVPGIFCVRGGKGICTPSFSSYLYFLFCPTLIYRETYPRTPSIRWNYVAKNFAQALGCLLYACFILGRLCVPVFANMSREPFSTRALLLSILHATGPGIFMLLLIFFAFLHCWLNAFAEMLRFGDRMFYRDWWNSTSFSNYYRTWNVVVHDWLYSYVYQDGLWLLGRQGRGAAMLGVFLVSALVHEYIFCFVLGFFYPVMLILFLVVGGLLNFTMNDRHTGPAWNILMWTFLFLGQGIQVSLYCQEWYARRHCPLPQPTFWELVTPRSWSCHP
In words: Inhibition of Acyl-CoA: Cholesterol Acyltransferase (ACAT) in Hepatic Microsomes. It is filed as biochemical, Sprague Dawley rats. The note with it: 14C-oleoyl-CoA, pH 7.4, 37° C., read-out: In Vitro ACAT IC50. How it is done:
A. Assay of the Inhibition of Acyl-CoA: Cholesterol Acyltransferase (ACAT) in Hepatic Microsomes
The ability of the compounds to inhibit ACAT, the enzyme responsible for the intracellular synthesis of cholesteryl esters, was tested as follows. Male Sprague Dawley rats weighing 150-300 g, were fed rat chow ad libitum. The animals were fasted for twenty-four hours prior to being sacrificed by decapitation. The livers were perfused in situ with 50 ml of cold 0.25M sucrose, excised, and homogenized in three volumes of 0.1M phosphate buffer, pH 7.4, that contained 0.5 mM EDTA (ethylenediaminetetraacetic acid), 1.0 mM glutathione, 0.25M sucrose and […]. Microsomes were obtained by differential centrifugation; the supernatant from an initial spin at 15,000×g for 15 minutes was centrifuged at 105,000×g for 1 hour to pellet the microsomes. The microsomes were suspended in homogenization buffer, reisolated by centrifugation, and stored at -70° C. Microsomes were used within one month of preparation.
The control assay in a final volume of 200 μl consisted of 200 μg of microsomal protein, 75 μM ^14 C-oleoyl-CoA (10,000 dpm/nmol) in 0.1M phosphate, pH 7.4, that contained 1 mM glutathione. Compounds were added in 5 μl of DMSO (dimethyl sulfoxide) and additional controls were run with DMSO only. All components, except the oleoyl-CoA, were preincubated for 15 min. at 37° C. prior to the initiation of the reaction by the addition of oleoyl-CoA. The assay was terminated after 10 min by the addition of 4 ml of chloroform:methanol (2:1, v/v). 20,000 dpm of 3H-cholesteryl oleate and 10 μg of unlabeled cholesteryl oleate and oleic acid were added as an internal standard and carriers, respectively. After allowing 10 min. for lipid extraction, the samples were centrifuged at 1,000×g for 10 min. to separate the solvent layers. The chloroform layer containing the neutral lipids was spotted onto a Baker SI250-Pa silica gel TLC plate and the plate developed using a hexane: diethyl ether: acetic acid (170:30:1 v/v/v) mobile phase. The lipids were visualized by their interaction with iodine vapor and the cholesteryl ester spot was scraped into a scintillation vial and counted.

For orientation: IC50 means the midpoint of a concentration-inhibition curve. With `CCCCCCCN(CCCCCCCCSc1nc(-c2ccccc2)c(-c2ccccc2)[nH]1)C(=O)Nc1ccc(F)cc1F` [Example 3, N'-(2,4-difluorophenyl)-N-[8-(4,5-diphenyl-1H-imidazol-2-ylthio)octyl]-N-heptylurea], the IC50 was determined as 0.008 µM.
For `CCCCCCCN(CCCCCSc1nc(-c2ccccc2)c(-c2ccccc2)n1C)C(=O)Nc1ccc(F)cc1F` [Example 6, N'-(2,4-difluorophenyl)-N-heptyl-N-[5-(1-methyl-4,5-diphenyl-1H-imidazol-2-ylthio]pentyl]urea], the IC50 stood at 3.6 µM.
The value for `CCCCCCCN(CCCCCSc1nc(-c2ccccc2)c(-c2ccccc2)[nH]1)C(=O)NCCC` [Example 8, N-[5-(4,5-diphenyl-1H-imidazol-2-ylthio)pentyl]-N-heptyl-N'-propylurea] was 0.01 µM.
For the molecule `CCCCCCCN(CCCCCSc1nc(-c2ccccc2)c(-c2ccccc2)[nH]1)C(=O)NC1CCCCC1` [Example 94, N'-cyclohexyl-N-[5-(4,5-diphenyl-1H-imidazol-2-ylthio)pentyl]-N-heptylurea], the IC50 came out at 0.01 µM.
For the molecule `CCCCCCCN(CCCCCSc1nc(-c2ccccc2)c(-c2ccccc2)[nH]1)C(=O)NC(C)C` [Example 105, N-[5-(4,5-diphenyl-1H-imidazol-2-ylthio)pentyl]-N-heptyl-N'-(1-methylethyl)urea], the 50% inhibitory concentration (IC50) worked out at 0.02 µM.
The value for `CCCCCCCN(CCSc1nc(-c2ccccc2)c(-c2ccccc2)[nH]1)C(=O)Nc1ccc(F)cc1F` [Example 189, N'-(2,4-difluorophenyl)-N-[2-(4,5-diphenyl-1H-imidazol-2-ylthio)ethyl]-N-heptylurea] was 0.07 µM.
The value for `CCCN(CCCCCSc1nc(-c2ccccc2)c(-c2ccccc2)[nH]1)C(=O)Nc1ccc(F)cc1F` [Example 190] was 0.03 µM; that for `CCCCCCCN(CCCCCSc1nc(-c2ccccc2)c(-c2ccccc2)[nH]1)C(=O)Nc1ccc(-c2ccccc2)cc1` [Example 192, N'-[(1,1'-biphenyl)-4-yl]-N-[5-(4,5-diphenyl-b 1H-imidazol-2-ylthio)pentyl]-N-heptylurea] was 0.07 µM.
As for `CCCCCCCCNC(=O)N(CCCCCSc1nc(-c2ccccc2)c(-c2ccccc2)[nH]1)c1ccc(F)cc1F` [Example 206, N-(2,4-difluorophenyl)-N-[5-(4,5-diphenyl-1H-imidazol-2-ylthio)pentyl]-N'-octylurea], the IC50 amounted to 0.04 µM.
For the molecule `CCCCCCCCNC(=O)N(CCCCCSc1nc(-c2ccccc2)c(-c2ccccc2)[nH]1)c1c(F)cc(F)cc1F` [Example 208], the IC50 is 0.02 µM.
Consider `CC(C)NC(=O)N(CCCCCSc1nc(-c2ccccc2)c(-c2ccccc2)[nH]1)c1ccccc1` [Example 261], for which the half-maximal inhibitory concentration (IC50) is 0.08 µM.
Regarding `CC(C)NC(=O)N(CCCCCSc1nc(-c2ccccc2)c(-c2ccccc2)[nH]1)c1ccc(F)cc1F` [Example 263], the IC50 was 0.04 µM.
The value for `CCCCCCCN(CCCCCSc1nc(-c2ccccc2)c(-c2ccccc2)[nH]1)C(=O)Nc1c(C(C)C)cccc1C(C)C` [Example 266] was 0.23 µM; that for `CCCCCCCN(CCCCCSc1nc(-c2ccccc2)c(-c2ccccc2)[nH]1)C(=S)Nc1ccc(F)cc1F` [Example 276, N'-(2,4-difluorophenyl]-N-[5-(4,5-diphenyl-1H-imidazol-2-ylthio)pentyl]-N-heptylthiourea] was 0.058 µM; that for `CCCCCCCN(CCCCC[S+]([O-])c1nc(-c2ccccc2)c(-c2ccccc2)[nH]1)C(=O)Nc1ccc(F)cc1F` (stereo not drawn) [Example 278, N'-(2,4-difluorophenyl)-N-[5-(4,5-diphenyl-1H-imidazol-2-ylsulfinyl)pentyl]-N-heptylurea] was 0.008 µM.
The value for `CCCCCCCN(CCCCCS(=O)(=O)c1nc(-c2ccccc2)c(-c2ccccc2)[nH]1)C(=O)Nc1ccc(F)cc1F` [Example 281, N'-(2,4-difluorophenyl)-N-[5-[(4,5-diphenyl-1H-imidazol-2-yl)sulfonyl]pentyl]-N-heptylurea] was 0.016 µM; that for `CCCCCCCN(CCCCCSc1nc(-c2ccccc2)c(-c2ccccc2)[nH]1)C(=S)Nc1c(F)cc(F)cc1F` [Example 298, N-[5-(4,5-diphenyl-1H-imidazol-2-ylthio)pentyl]N-heptyl-N'-(2,4,6-trifluorophenyl)thiourea] was 0.03 µM; that for `CCCCCCCN(CCCCCNc1nc(-c2ccccc2)c(-c2ccccc2)[nH]1)C(=O)Nc1ccc(F)cc1F` [Example 338, N' -(2,4-difluorophenyl)-N-[5-(4,5-diphenyl-1H-imidazol-2-ylamino)pentyl]-N-heptylurea] was 3.5 µM.
Take `CCCCCCCN(CCCCCCc1nc(-c2ccccc2)c(-c2ccccc2)[nH]1)C(=O)Nc1ccc(F)cc1F` [Example 339, N'-(2,4-difluorophenyl)-N-[6-(4,5-diphenyl-1H-imidazol-2-yl)hexyl]-N-heptylurea]: the concentration for half-maximal inhibition (IC50) worked out at 0.28 µM.
With `CCCCCCCN(CCCCCSc1nc(-c2ccccc2)c(-c2ccccc2)[nH]1)C(=O)Cc1ccc(F)cc1F` [Example 340, 2,4-difluoro-N-[(5-(4,5-diphenyl-1H-imidazol-2-ylthio)pentyl)]-N-heptylbenzeneacetamide], the IC50 amounted to 0.025 µM.
The value for `CCCCCCCN(CCCCCSc1nc(-c2ccccc2)c(-c2ccccc2)[nH]1)C(=O)Cc1ccc(-c2ccccc2)cc1` [Example 343, N-[5-(4,5-diphenyl-1H-imidazol-2-ylthio)pentyl]-N-heptyl[1,1'-biphenyl]-4-acetamide] was 0.16 µM; that for `CCCCCCCN(CCCCCSc1nc(-c2ccccc2)c(-c2ccccc2)[nH]1)C(=O)CC1CCCCC1` [Example 344] was 0.03 µM.
The value for `CCCCCCCN(CCCCCSc1nc(-c2ccccc2)c(-c2ccccc2)[nH]1)C(=O)c1ccc(F)cc1F` [Example 345] was 0.06 µM; that for `CCCCCCCN(CCCCCSc1nc(-c2ccccc2)c(-c2ccccc2)[nH]1)C(=O)c1ccccc1` [Example 346] was 0.05 µM; that for `CCCCCCCN(CCCCCSc1nc(-c2ccccc2)c(-c2ccccc2)[nH]1)C(=O)OC1CCCCC1` [Example 401, cyclohexyl [5-(4,5-diphenyl-1H-imidazol-2-ylthio)pentyl]heptylcarbamate] was 0.05 µM.
For the molecule `CCCCCCCN(CCCCCSc1nc(-c2ccccc2)c(-c2ccccc2)[nH]1)C(=O)Oc1ccccc1` [Example 402, Phenyl [5-(4,5-diphenyl-1H-imidazol-2-ylthio)pentyl]heptylcarbamate], the IC50 stood at 0.02 µM.
On to `CCCCCCCN(CCCCCSc1nc(-c2ccccc2)c(-c2ccccc2)[nH]1)C(=N)Nc1ccccc1` [Example 499, N-[5-(4,5-diphenyl-1H-imidazol-2-ylthio)pentyl]-N-heptyl-N'-phenylguanidin], for which the IC50 came to 3.16 µM.
